Experimental data published in US11083725B2 (priority 2014, dated 2021).

System: NHBE cells
Experiment: Biolog metabolic array: substrate use by NHBE cells with or without CA09 infection
Format: cell-based, human
Details: for Substrate use, 590 nm absorbance normalized to zero hour, 1 hr: Biolog PMM2, 1 hr; for Substrate use, 590 nm absorbance normalized to zero hour, 5 hr: Biolog PMM2, 5 hr; for Substrate use, 590 nm absorbance normalized to zero hour, 7 hr: Biolog PMM2, 7 hr; for Substrate use, 590 nm absorbance normalized to zero hour, 0 hr: Biolog PMM2, 0 hr
[1] = Control (uninfected) NHBE cells
[2] = Virus (CA09-infected NHBE cells, MOI 1)
[3] = Virus: CA09-infected NHBE cells, MOI 1, Biolog PMM2
[4] = Virus (CA09-infected, MOI 1) NHBE cells

OC[C@@H](O)[C@@H](O)[C@@H](O)CO [Adonitol]
590 nm absorbance normalized to zero hour (substrate use), 1 hr [1]: 0.57
590 nm absorbance normalized to zero hour (substrate use), 2 hr [1]: 0.78
590 nm absorbance normalized to zero hour (substrate use), 3 hr [1]: 0.93
590 nm absorbance normalized to zero hour (substrate use), 4 hr [1]: 0.98
590 nm absorbance normalized to zero hour (substrate use), 6 hr [1]: 1.35
590 nm absorbance normalized to zero hour (substrate use), 8 hr [1]: 1.40
590 nm absorbance normalized to zero hour (substrate use), 9 hr [1]: 1.55
590 nm absorbance normalized to zero hour (substrate use), 10 hr [1]: 1.43
590 nm absorbance normalized to zero hour (substrate use), 11 hr [1]: 1.46
Substrate use, 590 nm absorbance normalized to zero hour, 1 hr [1]: 0.57
Substrate use, 590 nm absorbance normalized to zero hour, 5 hr [1]: 1.16
Substrate use, 590 nm absorbance normalized to zero hour, 7 hr [1]: 1.28
590 nm absorbance normalized to zero hour (substrate use), 1 hr [2]: 0.21
590 nm absorbance normalized to zero hour (substrate use), 2 hr [2]: 0.26
590 nm absorbance normalized to zero hour (substrate use), 3 hr [2]: 0.29
590 nm absorbance normalized to zero hour (substrate use), 4 hr [2]: 0.31
590 nm absorbance normalized to zero hour (substrate use), 5 hr [2]: 0.34
590 nm absorbance normalized to zero hour (substrate use), 6 hr [2]: 0.36
590 nm absorbance normalized to zero hour (substrate use), 7 hr [2]: 0.38
590 nm absorbance normalized to zero hour (substrate use), 8 hr [2]: 0.39
590 nm absorbance normalized to zero hour (substrate use), 9 hr [2]: 0.42
590 nm absorbance normalized to zero hour (substrate use), 10 hr [2]: 0.44
590 nm absorbance normalized to zero hour (substrate use), 11 hr [2]: 0.43
590 nm absorbance normalized to zero hour (substrate use), 1 hr [3]: 0.21
590 nm absorbance normalized to zero hour (substrate use), 2 hr [3]: 0.26
590 nm absorbance normalized to zero hour (substrate use), 3 hr [3]: 0.29
590 nm absorbance normalized to zero hour (substrate use), 4 hr [3]: 0.31
590 nm absorbance normalized to zero hour (substrate use), 5 hr [3]: 0.34
590 nm absorbance normalized to zero hour (substrate use), 6 hr [3]: 0.36
590 nm absorbance normalized to zero hour (substrate use), 7 hr [3]: 0.38
590 nm absorbance normalized to zero hour (substrate use), 8 hr [3]: 0.39
590 nm absorbance normalized to zero hour (substrate use), 9 hr [3]: 0.42
590 nm absorbance normalized to zero hour (substrate use), 10 hr [3]: 0.44
590 nm absorbance normalized to zero hour (substrate use), 11 hr [3]: 0.43

Pectin
590 nm absorbance normalized to zero hour (substrate use), 0 hr [1]: 1.00
590 nm absorbance normalized to zero hour (substrate use), 1 hr [1]: 3.40
590 nm absorbance normalized to zero hour (substrate use), 2 hr [1]: 1.82
590 nm absorbance normalized to zero hour (substrate use), 3 hr [1]: 1.76
590 nm absorbance normalized to zero hour (substrate use), 4 hr [1]: 1.72
590 nm absorbance normalized to zero hour (substrate use), 6 hr [1]: 2.65
590 nm absorbance normalized to zero hour (substrate use), 8 hr [1]: 0.95
590 nm absorbance normalized to zero hour (substrate use), 9 hr [1]: 1.44
590 nm absorbance normalized to zero hour (substrate use), 10 hr [1]: 1.37
590 nm absorbance normalized to zero hour (substrate use), 11 hr [1]: 0.91
Substrate use, 590 nm absorbance normalized to zero hour, 0 hr [1]: 1.00
Substrate use, 590 nm absorbance normalized to zero hour, 1 hr [1]: 3.40
Substrate use, 590 nm absorbance normalized to zero hour, 5 hr [1]: 1.45
Substrate use, 590 nm absorbance normalized to zero hour, 7 hr [1]: 1.44
590 nm absorbance normalized to zero hour (substrate use), 0 hr [4]: 1.00
590 nm absorbance normalized to zero hour (substrate use), 1 hr [4]: 3.25
590 nm absorbance normalized to zero hour (substrate use), 2 hr [4]: 2.85
590 nm absorbance normalized to zero hour (substrate use), 3 hr [4]: 0.75
590 nm absorbance normalized to zero hour (substrate use), 4 hr [4]: 0.80
590 nm absorbance normalized to zero hour (substrate use), 5 hr [4]: 0.91
590 nm absorbance normalized to zero hour (substrate use), 6 hr [4]: 0.95
590 nm absorbance normalized to zero hour (substrate use), 7 hr [4]: 1.00
590 nm absorbance normalized to zero hour (substrate use), 8 hr [4]: 1.05
590 nm absorbance normalized to zero hour (substrate use), 9 hr [4]: 1.15
590 nm absorbance normalized to zero hour (substrate use), 10 hr [4]: 1.17
590 nm absorbance normalized to zero hour (substrate use), 11 hr [4]: 1.27
590 nm absorbance normalized to zero hour (substrate use), 0 hr [3]: 1.00
590 nm absorbance normalized to zero hour (substrate use), 1 hr [3]: 3.25
590 nm absorbance normalized to zero hour (substrate use), 2 hr [3]: 2.85
590 nm absorbance normalized to zero hour (substrate use), 3 hr [3]: 0.75
590 nm absorbance normalized to zero hour (substrate use), 4 hr [3]: 0.80
590 nm absorbance normalized to zero hour (substrate use), 5 hr [3]: 0.91
590 nm absorbance normalized to zero hour (substrate use), 6 hr [3]: 0.95
590 nm absorbance normalized to zero hour (substrate use), 7 hr [3]: 1.00
590 nm absorbance normalized to zero hour (substrate use), 8 hr [3]: 1.05
590 nm absorbance normalized to zero hour (substrate use), 9 hr [3]: 1.15
590 nm absorbance normalized to zero hour (substrate use), 10 hr [3]: 1.17
590 nm absorbance normalized to zero hour (substrate use), 11 hr [3]: 1.27

NCCO [2-Aminoethanol]
590 nm absorbance normalized to zero hour (substrate use), 0 hr [1]: 1.00
590 nm absorbance normalized to zero hour (substrate use), 1 hr [1]: 1.30
590 nm absorbance normalized to zero hour (substrate use), 3 hr [1]: 1.12
590 nm absorbance normalized to zero hour (substrate use), 4 hr [1]: 1.15
590 nm absorbance normalized to zero hour (substrate use), 6 hr [1]: 0.46
590 nm absorbance normalized to zero hour (substrate use), 8 hr [1]: 1.06
590 nm absorbance normalized to zero hour (substrate use), 9 hr [1]: 1.03
590 nm absorbance normalized to zero hour (substrate use), 10 hr [1]: 1.05
590 nm absorbance normalized to zero hour (substrate use), 11 hr [1]: 1.07
Substrate use, 590 nm absorbance normalized to zero hour, 0 hr [1]: 1.00
Substrate use, 590 nm absorbance normalized to zero hour, 1 hr [1]: 1.30
Substrate use, 590 nm absorbance normalized to zero hour, 5 hr [1]: 1.24
Substrate use, 590 nm absorbance normalized to zero hour, 7 hr [1]: 1.07
590 nm absorbance normalized to zero hour (substrate use), 0 hr [4]: 1.00
590 nm absorbance normalized to zero hour (substrate use), 1 hr [4]: 1.65
590 nm absorbance normalized to zero hour (substrate use), 2 hr [4]: 2.01
590 nm absorbance normalized to zero hour (substrate use), 3 hr [4]: 2.38
590 nm absorbance normalized to zero hour (substrate use), 4 hr [4]: 2.50
590 nm absorbance normalized to zero hour (substrate use), 5 hr [4]: 2.74
590 nm absorbance normalized to zero hour (substrate use), 6 hr [4]: 2.88
590 nm absorbance normalized to zero hour (substrate use), 7 hr [4]: 3.01
590 nm absorbance normalized to zero hour (substrate use), 8 hr [4]: 3.12
590 nm absorbance normalized to zero hour (substrate use), 9 hr [4]: 3.41
590 nm absorbance normalized to zero hour (substrate use), 10 hr [4]: 3.22
590 nm absorbance normalized to zero hour (substrate use), 11 hr [4]: 3.78
590 nm absorbance normalized to zero hour (substrate use), 0 hr [3]: 1.00
590 nm absorbance normalized to zero hour (substrate use), 1 hr [3]: 1.65
590 nm absorbance normalized to zero hour (substrate use), 2 hr [3]: 2.01
590 nm absorbance normalized to zero hour (substrate use), 3 hr [3]: 2.38
590 nm absorbance normalized to zero hour (substrate use), 4 hr [3]: 2.50
590 nm absorbance normalized to zero hour (substrate use), 5 hr [3]: 2.74
590 nm absorbance normalized to zero hour (substrate use), 6 hr [3]: 2.88
590 nm absorbance normalized to zero hour (substrate use), 7 hr [3]: 3.01
590 nm absorbance normalized to zero hour (substrate use), 8 hr [3]: 3.12
590 nm absorbance normalized to zero hour (substrate use), 9 hr [3]: 3.41
590 nm absorbance normalized to zero hour (substrate use), 10 hr [3]: 3.22
590 nm absorbance normalized to zero hour (substrate use), 11 hr [3]: 3.78

OC[C@H]1O[C@@H](O[C@H]2[C@H](O)[C@@H](O)[C@H](O)O[C@@H]2CO)[C@H](O)[C@@H](O)[C@@H]1O [D-Cellobiose]
590 nm absorbance normalized to zero hour (substrate use), 0 hr [1]: 1.00
590 nm absorbance normalized to zero hour (substrate use), 1 hr [1]: 1.74
590 nm absorbance normalized to zero hour (substrate use), 2 hr [1]: 2.30
590 nm absorbance normalized to zero hour (substrate use), 3 hr [1]: 2.69
590 nm absorbance normalized to zero hour (substrate use), 4 hr [1]: 2.91
590 nm absorbance normalized to zero hour (substrate use), 6 hr [1]: 4.52
590 nm absorbance normalized to zero hour (substrate use), 8 hr [1]: 4.59
590 nm absorbance normalized to zero hour (substrate use), 9 hr [1]: 5.13
590 nm absorbance normalized to zero hour (substrate use), 10 hr [1]: 5.20
590 nm absorbance normalized to zero hour (substrate use), 11 hr [1]: 5.51
Substrate use, 590 nm absorbance normalized to zero hour, 0 hr [1]: 1.00
Substrate use, 590 nm absorbance normalized to zero hour, 1 hr [1]: 1.74
Substrate use, 590 nm absorbance normalized to zero hour, 5 hr [1]: 3.55
Substrate use, 590 nm absorbance normalized to zero hour, 7 hr [1]: 4.26
590 nm absorbance normalized to zero hour (substrate use), 0 hr [4]: 1.00
590 nm absorbance normalized to zero hour (substrate use), 1 hr [4]: 1.58
590 nm absorbance normalized to zero hour (substrate use), 2 hr [4]: 2.09
590 nm absorbance normalized to zero hour (substrate use), 3 hr [4]: 2.38
590 nm absorbance normalized to zero hour (substrate use), 4 hr [4]: 2.49
590 nm absorbance normalized to zero hour (substrate use), 5 hr [4]: 2.81
590 nm absorbance normalized to zero hour (substrate use), 6 hr [4]: 3.00
590 nm absorbance normalized to zero hour (substrate use), 7 hr [4]: 3.14
590 nm absorbance normalized to zero hour (substrate use), 8 hr [4]: 3.31
590 nm absorbance normalized to zero hour (substrate use), 9 hr [4]: 3.54
590 nm absorbance normalized to zero hour (substrate use), 10 hr [4]: 3.69
590 nm absorbance normalized to zero hour (substrate use), 11 hr [4]: 4.06
590 nm absorbance normalized to zero hour (substrate use), 0 hr [3]: 1.00
590 nm absorbance normalized to zero hour (substrate use), 1 hr [3]: 1.58
590 nm absorbance normalized to zero hour (substrate use), 2 hr [3]: 2.09
590 nm absorbance normalized to zero hour (substrate use), 3 hr [3]: 2.38
590 nm absorbance normalized to zero hour (substrate use), 4 hr [3]: 2.49
590 nm absorbance normalized to zero hour (substrate use), 5 hr [3]: 2.81
590 nm absorbance normalized to zero hour (substrate use), 6 hr [3]: 3.00
590 nm absorbance normalized to zero hour (substrate use), 7 hr [3]: 3.14
590 nm absorbance normalized to zero hour (substrate use), 8 hr [3]: 3.31
590 nm absorbance normalized to zero hour (substrate use), 9 hr [3]: 3.54
590 nm absorbance normalized to zero hour (substrate use), 10 hr [3]: 3.69
590 nm absorbance normalized to zero hour (substrate use), 11 hr [3]: 4.06
